Results as given in PMC546277 (Arthritis Research & Therapy, 2004).

Target: IGFBP-3 (recombinant human IGF-binding protein 3, rhIGFBP-3) (Homo sapiens, UniProt P17936)
Sequence (P17936 28-291): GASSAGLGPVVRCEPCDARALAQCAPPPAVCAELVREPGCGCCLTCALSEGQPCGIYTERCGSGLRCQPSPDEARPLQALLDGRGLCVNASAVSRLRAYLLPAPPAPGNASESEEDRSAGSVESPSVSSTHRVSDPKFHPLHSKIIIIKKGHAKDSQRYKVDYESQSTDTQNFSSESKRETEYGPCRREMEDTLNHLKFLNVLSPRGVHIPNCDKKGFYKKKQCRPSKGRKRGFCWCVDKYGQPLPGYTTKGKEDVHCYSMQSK
Sequence (P05019 49-118 partner): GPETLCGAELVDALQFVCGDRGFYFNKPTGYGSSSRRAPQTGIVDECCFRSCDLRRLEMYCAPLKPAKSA

## O=C(O)c1cc2cc(O)c(O)cc2c(C(=O)c2ccc(O)c(O)c2)n1 [NBI-31772, 1-(3,4-dihydroxybenzoyl)-3-hydroxycarbonyl-6,7-dihydroxyisoquinoline]
  IC50: 2 nM
